From the supplement of paper PMC10307832

Experiments:
Experiment in all cases: relative viability (nuclei count vs DMSO), 5 days (fraction); higher = more cells survive
XMD14-99 + Phenformin = compound: CN1CCN(CC1)C2=CC(=C(C=C2)NC3=NC(=C(S3)C(=O)C4=C(C=CC=C4Cl)Cl)N)OC [XMD14-99] + N=C(N)NC(=N)NCCc1ccccc1 [Phenformin] (partner 250 µM)
Summary of the method: (§1)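 The day after seeding in 1536-well plates, lung cancer cell lines were treated by pin tool with a single drug, or with a fixed anchor-drug dose together with five library-drug doses (not always all listed) in √10 steps. After 5 days, a combined fix-and-stain solution (final 0.05% Triton X-100, 1% formaldehyde, 1 ug/ml Hoechst) was added. Nuclei counted on 4× images gave relative viability as treated counts over vehicle counts, reported as the median of duplicate plates.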

XMD14-99 + Decitabine = compound: CN1CCN(CC1)C2=CC(=C(C=C2)NC3=NC(=C(S3)C(=O)C4=C(C=CC=C4Cl)Cl)N)OC [XMD14-99] + Nc1ncn([C@H]2C[C@H](O)[C@@H](CO)O2)c(=O)n1 [Decitabine] (partner 2 µM)
Summary of the method: as §1

AZD1208 + Linsitinib = compound: N[C@@H]1CCCN(c2c(/C=C3\SC(=O)NC3=O)cccc2-c2ccccc2)C1 [AZD1208] + C[C@]1(O)C[C@@H](c2nc(-c3ccc4ccc(-c5ccccc5)nc4c3)c3c(N)nccn32)C1 [Linsitinib] (partner 1 µM)
Summary of the method: as §1

XMD14-99 + Pemetrexed = compound: CN1CCN(CC1)C2=CC(=C(C=C2)NC3=NC(=C(S3)C(=O)C4=C(C=CC=C4Cl)Cl)N)OC [XMD14-99] + Nc1nc2[nH]cc(CCc3ccc(C(=O)N[C@@H](CCC(=O)O)C(=O)O)cc3)c2c(=O)[nH]1 [Pemetrexed] (partner 0.2 µM)
Summary of the method: as §1

UMC-11
relative viability (XMD14-99 + Phenformin; first compound 0.08 µM): 0.336
relative viability (XMD14-99 + Phenformin; first compound 0.8 µM): 0.314
relative viability (XMD14-99 + Phenformin; first compound 2.53 µM): 0.319
relative viability (XMD14-99 + Phenformin; first compound 8 µM): 0.275
relative viability (XMD14-99 + Decitabine; first compound 0.08 µM): 0.573
relative viability (XMD14-99 + Decitabine; first compound 0.8 µM): 0.667
relative viability (XMD14-99 + Decitabine; first compound 2.53 µM): 0.626
relative viability (XMD14-99 + Decitabine; first compound 8 µM): 0.589
relative viability (AZD1208 + Linsitinib; first compound 0.08 µM): 0.909
relative viability (AZD1208 + Linsitinib; first compound 0.253 µM): 0.767
relative viability (AZD1208 + Linsitinib; first compound 0.8 µM): 0.772
relative viability (AZD1208 + Linsitinib; first compound 2.53 µM): 0.67
relative viability (AZD1208 + Linsitinib; first compound 8 µM): 0.558
relative viability (XMD14-99 + Pemetrexed; first compound 0.08 µM): 0.752
relative viability (XMD14-99 + Pemetrexed; first compound 0.8 µM): 0.769
relative viability (XMD14-99 + Pemetrexed; first compound 2.53 µM): 0.688
relative viability (XMD14-99 + Pemetrexed; first compound 8 µM): 0.69
